The values that follow are results of earlier work, collected in patent US20230095832A1, “ADHESION BARRIER COMPOSITION, METHODS OF FABRICATION AND USE THEREOF” (SPOROGENICS PTE. LTD., priority 2020, published 2023).

Each structure is given as a SMILES string.

The subject of the data set is intra-abdominal adhesions.

Regarding `O=C(O)c1cc(O)c(O)c(O)c1` [gallic acid], the “IL-6, TNF-α, TGF-b1 serum levels and NF-kB phosphorylation” value (further studies) is given as “significantly reduced”. For the same compound, under “rats, compared to a control”, the intra-abdominal adhesions entry was “decrease intra-abdominal adhesions”.
